Assay results taken from patent publication US6066616A, “Somatostatin analogue composition and use in treating breast cancer” (Novartis AG, priority 1987, dated 2000).

Assay: tolerated dose of octreotide
Conditions: in vivo
Protocol: Thus for octreotide, GI tumours may be treated initially with 0.05 mg once or twice a day by sub-cutaneous injection. Dosage can be increased to 0.2 mg three times daily. For acromegaly daily doses of from 100 to 300 μg s.c. may be used. Octreotide is tolerated at least to 1 mg.

In the case of C[C@@H](O)[C@@H]1NC(=O)[C@H](CCCCN)NC(=O)[C@@H](Cc2c[nH]c3ccccc23)NC(=O)[C@H](Cc2ccccc2)NC(=O)[C@@H](NC(=O)[C@H](N)Cc2ccccc2)CSSC[C@@H](C(=O)N[C@H](CO)[C@@H](C)O)NC1=O [Octreotide, octreotide], the tolerated dose is reported as ≥ 1 mg.
